Assays:
5-Fluorouracil = compound: O=c1[nH]cc(F)c(=O)[nH]1 [5-Fluorouracil]; conditions: max 20 µM
Summary of the method: (§1)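 Cancer cell lines were plated in 1536-well plates in 7.5 μl of DMEM/F12 or RPMI with 10% FBS and kept 24 hours at 37°C and 5% CO2 before 72 hours of dosing, with final DMSO typically 0.2%. CellTiter-Glo 2.0 luminescence measured viability, scaled between blank-well and DMSO-well means. Dose responses were fitted to a two-parameter logistic curve with a non-linear mixed effects model. This fit gives the single-agent IC50.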

Trametinib = compound: CC(=O)Nc1cccc(-n2c(=O)n(C3CC3)c(=O)c3c(Nc4ccc(I)cc4F)n(C)c(=O)c(C)c32)c1 [Trametinib]; conditions: max 1 µM
Summary of the method: as §1

AZD8186 = compound: C[C@@H](Nc1cc(F)cc(F)c1)c1cc(C(=O)N(C)C)cc2c(=O)cc(N3CCOCC3)oc12 [AZD8186]; conditions: max 10 µM
Summary of the method: as §1

Lapatinib = compound: CS(=O)(=O)CCNCc1ccc(-c2ccc3ncnc(Nc4ccc(OCc5cccc(F)c5)c(Cl)c4)c3c2)o1 [Lapatinib]; conditions: max 10 µM
Summary of the method: as §1

AZD1775 = compound: C=CCn1c(=O)c2cnc(Nc3ccc(N4CCN(C)CC4)cc3)nc2n1-c1cccc(C(C)(C)O)n1 [AZD1775]; conditions: max 3 µM
Summary of the method: as §1

MK-2206 = compound: NC1(c2ccc(-c3nc4ccn5c(=O)[nH]nc5c4cc3-c3ccccc3)cc2)CCC1 [MK-2206]; conditions: max 10 µM
Summary of the method: as §1

AZD0156 = compound: CN(C)CCCOc1ccc(-c2ccc3ncc4c(c3c2)n(C2CCOCC2)c(=O)n4C)cn1 [AZD0156]; conditions: max 3 µM
Summary of the method: as §1

AZD2811 = compound: CCN(CCO)CCCOc1ccc2c(Nc3cc(CC(=O)Nc4cccc(F)c4)[nH]n3)ncnc2c1 [AZD2811]; conditions: max 1 µM
Summary of the method: as §1

Doxorubicin = compound: COc1cccc2c1C(=O)c1c(O)c3c(c(O)c1C2=O)C[C@@](O)(C(=O)CO)C[C@@H]3O[C@H]1C[C@H](N)[C@H](O)[C@H](C)O1 [Doxorubicin]; conditions: max 1 µM
Summary of the method: as §1

AZD6738 = compound: C[C@@H]1COCCN1C2=NC(=NC(=C2)C3(CC3)[S@](=N)(=O)C)C4=C5C=CNC5=NC=C4 [AZD6738]; conditions: max 10 µM
Summary of the method: as §1

AZD7648 = compound: Cc1cc2ncnn2cc1Nc1ncc2c(n1)n(C1CCOCC1)c(=O)n2C [AZD7648]; conditions: max 10 µM
Summary of the method: as §1

SN-38 = compound: CCc1c2c(nc3ccc(O)cc13)-c1cc3c(c(=O)n1C2)COC(=O)[C@]3(O)CC [SN-38]; conditions: max 0.3 µM
Summary of the method: as §1

Selumetinib = compound: Cn1cnc2c(F)c(Nc3ccc(Br)cc3Cl)c(C(=O)NOCCO)cc21 [Selumetinib]; conditions: max 10 µM
Summary of the method: as §1

SG3199 = compound: CC1=CN2[C@@H](C1)C=NC3=CC(=C(C=C3C2=O)OC)OCCCCCOC4=C(C=C5C(=C4)N=C[C@@H]6CC(=CN6C5=O)C)OC [SG3199]; conditions: max 0.001 µM
Summary of the method: as §1

AZD1390 = compound: CC(C)n1c(=O)n(C)c2cnc3cc(F)c(-c4ccc(OCCCN5CCCCC5)nc4)cc3c21 [AZD1390]; conditions: max 0.3 µM
Summary of the method: as §1

SRA737 = compound: N#Cc1cnc(Nc2cc(NC[C@H]3CNCCO3)c(C(F)(F)F)cn2)cn1 [SRA737]; conditions: max 10 µM
Summary of the method: as §1

Carboplatin = compound: C1CC(C1)(C(=O)[O-])C(=O)[O-].N.N.[Pt+2] [Carboplatin]; conditions: max 10 µM
Summary of the method: as §1

Savolitinib = compound: C[C@@H](c1ccc2nccn2c1)n1nnc2ncc(-c3cnn(C)c3)nc21 [Savolitinib]; conditions: max 1 µM
Summary of the method: as §1

AZD4320 = compound: CN(CC[C@H](CSC1=CC=CC=C1)NC2=C(C=C(C=C2)S(=O)(=O)NC(=O)C3=CC=C(C=C3)N4CCC(CC4)[C@H](C5=CC=CC=C5C6=CC=C(C=C6)Cl)O)S(=O)(=O)C(F)(F)F)CCO [AZD4320]; conditions: max 1 µM
Summary of the method: as §1

Alisertib = compound: COc1cc(Nc2ncc3c(n2)-c2ccc(Cl)cc2C(c2c(F)cccc2OC)=NC3)ccc1C(=O)O [Alisertib]; conditions: max 10 µM
Summary of the method: as §1

Venetoclax = compound: CC1(C)CCC(CN2CCN(c3ccc(C(=O)NS(=O)(=O)c4ccc(NCC5CCOCC5)c([N+](=O)[O-])c4)c(Oc4cnc5[nH]ccc5c4)c3)CC2)=C(c2ccc(Cl)cc2)C1 [Venetoclax]; conditions: max 1 µM
Summary of the method: as §1

Taselisib = compound: Cc1nc(-c2cn3c(n2)-c2ccc(-c4cnn(C(C)(C)C(N)=O)c4)cc2OCC3)n(C(C)C)n1 [Taselisib]; conditions: max 10 µM
Summary of the method: as §1

[1] = compound: O=C(Nc1ccc2[nH]nc(-c3ccncc3)c2c1)[C@@H]1CCN(CC(=O)N2CCN(c3ccc(-c4ncccn4)cc3)CC2)C1; conditions: max 5 µM
Summary of the method: as §1

Crizotinib = compound: C[C@@H](Oc1cc(-c2cnn(C3CCNCC3)c2)cnc1N)c1c(Cl)ccc(F)c1Cl [Crizotinib]; conditions: max 10 µM
Summary of the method: as §1

Paclitaxel = compound: CC(=O)O[C@H]1C(=O)[C@@]2(C)[C@H]([C@H](OC(=O)c3ccccc3)[C@]3(O)C[C@H](OC(=O)[C@H](O)[C@@H](NC(=O)c4ccccc4)c4ccccc4)C(C)=C1C3(C)C)[C@]1(OC(C)=O)CO[C@@H]1C[C@@H]2O [Paclitaxel]; conditions: max 3 µM
Summary of the method: as §1

Etoposide = compound: COc1cc([C@@H]2c3cc4c(cc3[C@@H](O[C@@H]3O[C@@H]5CO[C@@H](C)O[C@H]5[C@H](O)[C@H]3O)[C@H]3COC(=O)[C@H]23)OCO4)cc(OC)c1O [Etoposide]; conditions: max 10 µM
Summary of the method: as §1

Gefitinib = compound: COc1cc2ncnc(Nc3ccc(F)c(Cl)c3)c2cc1OCCCN1CCOCC1 [Gefitinib]; conditions: max 10 µM
Summary of the method: as §1

Prexasertib = compound: COc1cccc(OCCCN)c1-c1cc(Nc2cnc(C#N)cn2)n[nH]1 [Prexasertib]; conditions: max 1 µM
Summary of the method: as §1

Gemcitabine = compound: Nc1ccn([C@@H]2O[C@H](CO)[C@@H](O)C2(F)F)c(=O)n1 [Gemcitabine]; conditions: max 0.3 µM
Summary of the method: as §1

AZD5991 = compound: Cc1c2c(nn1C)CSCc1cc(n(C)n1)CSc1cc(c3ccccc3c1)OCCCc1c(C(=O)O)n(C)c3c-2c(Cl)ccc13 [AZD5991]; conditions: max 1 µM
Summary of the method: as §1

Palbociclib = compound: CC(=O)c1c(C)c2cnc(Nc3ccc(N4CCNCC4)cn3)nc2n(C2CCCC2)c1=O [Palbociclib]; conditions: max 10 µM
Summary of the method: as §1

Olaparib = compound: O=C(c1cc(Cc2n[nH]c(=O)c3ccccc23)ccc1F)N1CCN(C(=O)C2CC2)CC1 [Olaparib]; conditions: max 10 µM
Summary of the method: as §1

Dasatinib = compound: CC1=C(C(=CC=C1)Cl)NC(=O)C2=CN=C(S2)NC3=CC(=NC(=N3)C)N4CCN(CC4)CCO [Dasatinib]; conditions: max 2 µM
Summary of the method: as §1

AZD5153 = compound: COc1nnc2ccc(N3CCC(c4ccc(OCCN5CCN(C)C(=O)[C@H]5C)cc4)CC3)nn12 [AZD5153]; conditions: max 1 µM
Summary of the method: as §1

AZD5363 = compound: C1CN(CCC1(C(=O)N[C@@H](CCO)C2=CC=C(C=C2)Cl)N)C3=NC=NC4=C3C=CN4 [AZD5363]; conditions: max 10 µM
Summary of the method: as §1

Row | Cell Line | IC50, cell viability 72 h (5-Fluorouracil) [µM] | IC50, cell viability 72 h (Trametinib) [µM] | IC50, cell viability 72 h (AZD8186) [µM] | IC50, cell viability 72 h (Lapatinib) [µM] | IC50, cell viability 72 h (AZD1775) [µM] | IC50, cell viability 72 h (MK-2206) [µM] | IC50, cell viability 72 h (AZD0156) [µM] | IC50, cell viability 72 h (AZD2811) [µM] | IC50, cell viability 72 h (Doxorubicin) [µM] | IC50, cell viability 72 h (AZD6738) [µM] | IC50, cell viability 72 h (AZD7648) [µM] | IC50, cell viability 72 h (SN-38) [µM] | IC50, cell viability 72 h (Selumetinib) [µM] | IC50, cell viability 72 h (SG3199) [µM] | IC50, cell viability 72 h (AZD1390) [µM] | IC50, cell viability 72 h (SRA737) [µM] | IC50, cell viability 72 h (Carboplatin) [µM] | IC50, cell viability 72 h (Savolitinib) [µM] | IC50, cell viability 72 h (AZD4320) [µM] | IC50, cell viability 72 h (Alisertib) [µM] | IC50, cell viability 72 h (Venetoclax) [µM] | IC50, cell viability 72 h (Taselisib) [µM] | IC50, cell viability 72 h [1] [µM] | IC50, cell viability 72 h (Crizotinib) [µM] | IC50, cell viability 72 h (Paclitaxel) [µM] | IC50, cell viability 72 h (Etoposide) [µM] | IC50, cell viability 72 h (Gefitinib) [µM] | IC50, cell viability 72 h (Prexasertib) [µM] | IC50, cell viability 72 h (Gemcitabine) [µM] | IC50, cell viability 72 h (AZD5991) [µM] | IC50, cell viability 72 h (Palbociclib) [µM] | IC50, cell viability 72 h (Olaparib) [µM] | IC50, cell viability 72 h (Dasatinib) [µM] | IC50, cell viability 72 h (AZD5153) [µM] | IC50, cell viability 72 h (AZD5363) [µM]
1 | BICR78 (Oral Cavity Carcinoma) | > 20 | > 1 | > 10 | > 10 | > 3 | > 10 | > 3 | > 1 | > 1 | 7.52 | > 10 | 0.0284 | > 10 | > 0.001 | > 0.3 | > 10 | > 10 | > 1 | > 1 | > 10 | > 1 | 5.01 | > 5 | > 10 | 0.0493 | > 10 | > 10 | 0.238 | > 0.3 | > 1 | > 10 | > 10 | > 2 | 0.966 | > 10
2 | CAL-39 (Other Solid Carcinomas) | > 20 | 0.059 | 4.77 | 0.377 | 0.651 | > 10 | > 3 | > 1 | > 1 | > 10 | > 10 | 0.0222 | 1.02 | > 0.001 | > 0.3 | > 10 | > 10 | > 1 | > 1 | 0.42 | > 1 | 0.142 | 0.581 | 4.69 | 0.00679 | 9.07 | 0.737 | > 1 | 0.0252 | > 1 | > 10 | > 10 | 0.0739 | 0.287 | > 10
3 | CS1 (Chondrosarcoma) | > 20 | > 1 | > 10 | > 10 | 2.03 | > 10 | > 3 | > 1 | 0.641 | > 10 | > 10 | 0.0186 | > 10 | > 0.001 | > 0.3 | > 10 | > 10 | > 1 | > 1 | 4.52 | > 1 | > 10 | > 5 | 9.48 | 0.114 | > 10 | > 10 | 0.0772 | > 0.3 | > 1 | > 10 | > 10 | > 2 | > 1 | > 10
4 | D-283MED (Other Solid Carcinomas) | 7.43 | > 1 | 8.4 | 6.25 | 0.425 | > 10 | > 3 | 0.45 | 0.2 | 0.302 | > 10 | 0.0073 | > 10 | > 0.001 | > 0.3 | 0.869 | > 10 | > 1 | 0.425 | 0.547 | > 1 | 3.99 | > 5 | 2.73 | < 0.003 | 0.583 | > 10 | 0.011 | 0.00345 | > 1 | > 10 | > 10 | > 2 | 0.0608 | 8.85
5 | D-392MG (Glioblastoma) | > 20 | > 1 | > 10 | > 10 | > 3 | > 10 | > 3 | > 1 | > 1 | > 10 | > 10 | > 0.3 | > 10 | > 0.001 | > 0.3 | > 10 | > 10 | > 1 | > 1 | > 10 | > 1 | > 10 | > 5 | > 10 | 0.245 | > 10 | > 10 | 0.775 | > 0.3 | > 1 | > 10 | > 10 | > 2 | > 1 | > 10

— the supplement of paper PMC11061612
